Reference: US5318971A, “3-Substituted-1-aryl-2(1H)-quinolones useful as anti-allergy and anti-inflammatory agents” (Schering Corporation, priority 1991, dated 1994)
Where two headings read alike, the source gives them in different places.

Experiments:
[1] = system: SRS-A (leukotriene) release, guinea pig lung; assay: SRSA Release in vitro (leukotriene release from sensitized guinea pig lung fragments); assay type: cell-based; conditions: Cavia porcellus, ovalbumin challenge, read-out: SRSA Release in vitro % l
Protocol: First, kill sensitized guinea pigs by a blow to the head, remove the lungs and clean them of visible connective tissue, trachea and large blood vessels. Slice the lungs from individual animals into fragments approximately 1 mm in thickness using a Mcllwain tissue chopper and wash them with oxygenated Tyrode's buffer. Transfer weighted allquots (approximately 400 mg wet weight) of lung into vials containing 2 ml of fresh Tyrode's solution (containing 10 mM cysteine) and incubate in the presence or absence of test compound for 12 minutes at 37° C., challenge the tissues with 20 μg ovalbumin/ml (final concentration) and incubate for 15 minutes.
To measure leukotriene release, extract an aliquot of supernatant fluid with 4 volumes of 100% ethanol. After removal of the precipitated protein, dry the clear fluid under a stream of N2 gas. Measure the leukotriene content by a radioimmunoassay using [^3 H]LTC4 (leukotriene C4) and antiserum obtained from New England Nuclear. Calculate percent inhibition of leukotriene release by comparing for each lung the release in the presence of the test compound to that in the absence of test compound.

rat pleural cavity = assay: Reverse Passive Arthus Pleurisy Reaction (RPAPR), pleural exudate cells and fluid; assay type: in vivo; conditions: po; for inhibition in vivo at 5 mg/kg: 5 mg/kg p.o.; for inhibition in vivo at 10 mg/kg: 10 mg/kg p.o.; for inhibition in vivo at 25 mg/kg: 25 mg/kg p.o.
Protocol: (§1) RPAPR was produced by a modification of the Yamamoto et al. method (Agents and Actions 5: 374-377, 1975). Thirty (30) minutes prior to lightly anesthesizing rats with ether and then sensitizing them by injecting the animals i.v. with 0.33 mg of bovine serum albumin (BSA) dissolved in 0.2 ml sterile saline, a test compound was administered per os (p.o.) as indicated in Table 1. Thirty minutes later, the rats were again lightly anesthetized and challenged intrapleurally with a rabbit anti-BSA antibody (Organon), containing 1.2 mg antibody protein, dissolved in 0.2 ml sterile saline. Four hours after challenge the rats were sacrificed by CO2 inhalation, their pleural cavities exposed and the exudate harvested. The total volumes of each exudate was recorded and the total number of leukocytes determined using a Coulter Counter ZM.

LTE4 (Leukotriene E4) = assay: Reverse Passive Arthus Pleurisy Reaction (RPAPR), LTE4 in pleural exudate; assay type: in vivo; conditions: rat, 25 mg/kg p.o.; radioimmunoassay of exudate
Protocol: as §1
(§2) The exudate were then centrifuged and the supernatants decanted. Four volumes of cold 95% acetone was added for each volume of exudate. One half hour later the samples were again centrifuged for 10 minutes. Immediately after, 5 ml of the supernatant was removed and dried under nitrogen. These samples were kept in a freezer until LTE4 and TxB2 were determined using a radioimmune assay kit from Amersham.
LTE4 = Leukotriene E4 a measure of lipoxygenase (LO) derived
(§3) mediators of inflammation.

TXB2 (Thromboxane B2) = assay: Reverse Passive Arthus Pleurisy Reaction (RPAPR), TxB2 in pleural exudate; assay type: in vivo; conditions: rat, 25 mg/kg p.o.; radioimmunoassay of exudate
Protocol: as §1, §2
TXB2 = Thromboxane B2 a measure of cyclooxygenase (CO) derived
as §3

[2] = system: antigen-induced SRS-A mediated bronchoconstriction; assay: Guinea Pig Bronchospasm (anaphylactic bronchospasm in sensitized guinea pigs); assay type: in vivo; conditions: 5 mg/kg p.o., ovalbumin aerosol challenge
Protocol: The anti-allergy activity of the compounds of this invention is identified by tests which measure a compound's inhibition of anaphylactic bronchospasms in sensitized guinea pigs having antigen-induced SRS-A mediated bronchoconstriction. Allergic bronchospasms were measured in actively sensitized guinea pigs by a modification of the procedure of Konzett and Rossler, Arch. Expt. Pathol. Pharmakol., 194, pp. 71-74 (1940). Male Hartly guinea pigs were sensitized with 5 mg ovalbumin injected ip and 5 mg injected sc in 1 ml saline on day 1 and 5 mg ovalbumin injected ip on day 4. To measure anaphylactic bronchospasm, sensitized guinea pigs were fasted overnight and the following morning were anesthetized with 0.9 mL/kg ip dialurethane. The trachea and jugular vein were cannulated and the animals were ventilated by a Harvard rodent respirator. A side arm to the tracheal cannula was connected to a Harvard pressure transducer to obtain a continuous measure of intratracheal pressure. An increase in intratracheal pressure was taken as a measure of bronchoconstriction. Each guinea pig was injected i.v. with 1 mg/kg propranolol, 5 mg/kg indomethacin and 2 mg/kg mepyramine given together in a volume of 1 mL/kg. […] Bronchoconstriction was measured as the peak increase in intratracheal pressure occurring within 15 minutes after antigen challenge.

[3] = Leukocyte, leukocytes in exudate 4 h after challenge, read-out: % Inhibition Cells
[4] = exudate volume 4 h after challenge, read-out: % Inhibition Fluid

Compound	inhibition in vivo at 25 mg/kg (rat pleural cavity; [3]) [%]	inhibition in vivo at 25 mg/kg (rat pleural cavity; [4]) [%]	also measured
O=c1c(Cn2cncn2)cc2ccccc2n1-c1ccccc1 [Formula 2]	–	–	inhibition at 30 µM [1]: 83%; inhibition in vivo at 5 mg/kg (rat pleural cavity; [3]): 64%; inhibition in vivo at 5 mg/kg (rat pleural cavity; [4]): 42%
O=c1c(Cn2cnnn2)cc2ccccc2n1-c1ccccc1 [Formula 3]	–	–	inhibition at 30 µM [1]: 83%; inhibition in vivo at 10 mg/kg (rat pleural cavity; [3]): 75%; inhibition in vivo at 10 mg/kg (rat pleural cavity; [4]): 50%
Cn1ccnc1SCc1cc2ccccc2n(-c2ccccc2)c1=O [Formula 48, 1-Phenyl-3-(1-Methyl-1H-imidazol-2-ylthiomethyl)-2(1H)-quinolone]	75	40	% Inhibition LTE4 (LTE4 (Leukotriene E4)): 57%; % Inhibition TXB2 (TXB2 (Thromboxane B2)): 67%
O=c1c(CCn2ccnc2)cc2ccccc2n1-c1ccccc1 [Formula 49]	86	53	–
CCc1nccn1Cc1cc2ccccc2n(-c2ccccc2)c1=O [Formula 50]	< 10	< 10	–
C[S+]([O-])Cc1cc2ccccc2n(Cc2ccccc2)c1=O (stereo not shown) [Formula 51]	22	< 10	–
O=c1c(Cn2cncn2)cc2ccccc2n1Cc1ccccc1 [Formula 52]	44	46	–
O=c1c(Cn2cncn2)cc2ccccc2n1-c1ccc(Cl)cc1 [Formula 53]	< 10	18	inhibition at 30 µM [1]: 76%; G.P. Bronchospasm % l [2]: 18%
O=c1c(Cn2cncn2)cc2cc(Br)ccc2n1-c1ccccc1 [Formula 54, 6-bromo-1-phenyl-3-(1H-1,2,4-triazol-1-ylmethyl)-2(1H)-quinolone]	< 10	< 10	–
O=c1c(Cn2cncn2)cc2ccc(Cl)cc2n1-c1ccccc1 [Formula 55, 1-phenyl-7-chloro-3-(1H-1,2,4-triazol-1-ylmethyl)-2(1H)-quinolone]	< 10	< 10	–
O=c1c(Cn2cncn2)cc2ccccc2n1-c1cccc(Cl)c1 [Formula 56, (1-3-Chlorophenyl)-3-(1H-1,2,4-Triazol-1-ylmethyl)-2(1H)-Quinolone]	–	–	inhibition in vivo at 5 mg/kg (rat pleural cavity; [3]): 56%; inhibition in vivo at 5 mg/kg (rat pleural cavity; [4]): 63%
O=c1c(Cn2cccn2)cc2ccccc2n1-c1ccccc1 [Formula 57]	20	19	–
CC(=O)NCc1cc2ccccc2n(-c2ccccc2)c1=O [Formula 58]	62	53	–
CC(=O)N1CCN(Cc2cc3ccccc3n(-c3ccccc3)c2=O)CC1 [Formula 59]	68	68	–
